From US20250154169A1, “COMPOUNDS AND METHODS FOR MODULATING SPLICING” (REMIX THERAPEUTICS INC., priority 2021, published 2025)
Where two headings read alike, the source gives them in different places.

What was measured:
Format in all cases: cell-based, human
Target C mRNA = assay: Splicing RT-qPCR gene panel, Target C canonical junction (CJ) mRNA; conditions: Homo sapiens, Tables 4A/4B, read-out: Target C (IC50, decrease in CJ mRNA, gene panel)
How it was run: (§1)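 A673 or K562 cells treated 24 h at 37° C. with an 11-point 3-fold dilution series (top 10 uM, ≤0.25% DMSO). Lysates analysed by one-step RT-qPCR for canonical exon-exon junction transcripts, normalized to GAPDH, GUSB or PPIA and DMSO control (2^(−ΔΔCt)), then converted to percentage response.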

SMN2 mRNA = assay: Splicing RT-qPCR gene panel, SMN2 canonical junction (CJ) mRNA; conditions: Homo sapiens, Tables 4A/4B, read-out: SMN2 (IC50, decrease in CJ mRNA, gene panel)
How it was run: as §1

HTT mRNA [1] = assay: Splicing RT-qPCR assay, HTT canonical (CJ) and alternative (AJ) junction mRNA; conditions: Homo sapiens
How it was run: (§2)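 One-step RT-qPCR on cell lysates, CJ and AJ isoforms quantified; housekeeping normalization GAPDH/GUSB (K562) or PPIA (A673). Cells: A673 in DMEM/10% FBS or K562 in IMDM/10% FBS. Compounds 11-pt 3-fold, top 10 uM, 24 h, 37 °C, 5% CO2.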

HTT mRNA [2] = assay: Splicing RT-qPCR gene panel, HTT canonical junction (CJ) mRNA; conditions: Homo sapiens, Tables 4A/4B, read-out: HTT (IC50, decrease in CJ mRNA, gene panel)
How it was run: as §1

MYB mRNA = assay: Splicing RT-qPCR assay, MYB canonical (CJ) and alternative (AJ) junction mRNA; conditions: Homo sapiens
How it was run: as §2

[3] = 24 h, A673 or K562 cells, 24 hours compound treatment, read-out: HTT CJ (IC50, decrease in canonical junction mRNA)
[4] = A673 or K562 cells, 24 hours compound treatment, read-out: HTT AJ (AC50, increase in alternative junction mRNA)
[5] = 24 h, A673 or K562 cells, 24 hours compound treatment, RT-qPCR, read-out: MYB AJ (AC50, increase in alternative junction mRNA)
[6] = 24 h, A673 or K562 cells, 24 hours compound treatment, RT-qPCR, read-out: MYB CJ (IC50, decrease in canonical junction mRNA)
[7] = Tables 4A/4B, canonical junction qPCR panel, read-out: MYB (IC50, decrease in CJ mRNA, gene panel)
[8] = Table 3B, alternative junction mRNA, read-out: HTT AJ (AC50, increase in AJ mRNA)
[9] = Table 3B, canonical junction mRNA, read-out: HTT CJ (IC50, decrease in CJ mRNA)
[10] = Table 3B, canonical junction mRNA, RT-qPCR, read-out: MYB CJ (IC50, decrease in CJ mRNA)
[11] = Table 3B, alternative junction mRNA, RT-qPCR, read-out: MYB AJ (AC50, increase in AJ mRNA)

Cc1cn2cc(NC(=O)c3ccc(N4CCC5(CC4)CNC5)c4cn(C)nc34)cc(F)c2n1 [Compound 348, 4-{2,7-diazaspiro[3.5]nonan-7-yl}-N-{8-fluoro-2-methylimidazo[1,2-a]pyridin-6-yl}-2-methylindazole-7-carboxamide]
IC50 (Target C mRNA): 1 to 10 µM | IC50 (SMN2 mRNA): < 100 nM | IC50 (HTT mRNA [1]; [3]): 1 to 10 µM | AC50 (HTT mRNA [1]; [4]): 1 to 10 µM | IC50 (HTT mRNA [2]): 1000 to 10000 nM | AC50 (MYB mRNA; [5]): < 100 nM | IC50 (MYB mRNA; [6]): < 100 nM | IC50 (MYB mRNA; [7]): < 100 nM

Cc1cn2cc(NC(=O)c3ccc(N4CCNCC4)c4cn(CC5(O)CC5)nc34)cc(F)c2n1 [Compound 358, N-{8-fluoro-2-methylimidazo[1,2-a]pyridin-6-yl}-2-[(1-hydroxycyclopropyl)methyl]-4-(piperazin-1-yl)indazole-7-carboxamide]
IC50 (Target C mRNA): > 10 µM | IC50 (SMN2 mRNA): < 100 nM | IC50 (HTT mRNA [1]; [3]): 1 to 10 µM | AC50 (HTT mRNA [1]; [4]): > 10 µM | IC50 (HTT mRNA [2]): 1000 to 10000 nM | AC50 (MYB mRNA; [5]): 100 to 1000 nM | IC50 (MYB mRNA; [6]): 100 to 1000 nM | IC50 (MYB mRNA; [7]): 100 to 1000 nM

Cc1cn2cc(NC(=O)c3ccc(N4CCNCC4)c4nnn(C)c34)cc(F)c2n1 [Compound 435, N-{8-fluoro-2-methylimidazo[1,2-a]pyridin-6-yl}-3-methyl-7-(piperazin-1-yl)-1,2,3-benzotriazole-4-carboxamide]
IC50 (Target C mRNA): 1 to 10 µM | IC50 (SMN2 mRNA): < 100 nM | IC50 (HTT mRNA [1]; [3]): > 10 µM | AC50 (HTT mRNA [1]; [4]): > 10 µM | IC50 (HTT mRNA [2]): 1000 to 10000 nM | AC50 (MYB mRNA; [5]): > 10000 nM | IC50 (MYB mRNA; [6]): > 10000 nM | IC50 (MYB mRNA; [7]): 100 to 1000 nM

Cn1cc2c(N3CCNCC3)ccc(C(=O)Nc3cc(F)c4nc(CO)cn4c3)c2n1 [Compound 389, N-[8-fluoro-2-(hydroxymethyl)imidazo[1,2-a]pyridin-6-yl]-2-methyl-4-(piperazin-1-yl) indazole-7-carboxamide; trifluoroacetic acid]
IC50 (Target C mRNA): > 10 µM | IC50 (SMN2 mRNA): < 100 nM | IC50 (HTT mRNA [1]; [3]): > 10 µM | AC50 (HTT mRNA [1]; [4]): > 10 µM | IC50 (HTT mRNA [2]): > 10000 nM | AC50 (MYB mRNA; [5]): 1000 to 10000 nM | IC50 (MYB mRNA; [6]): 100 to 1000 nM | IC50 (MYB mRNA; [7]): 100 to 1000 nM

Cc1cn2cc(NC(=O)c3ccc(N4CCNCC4)c4csnc34)cc(F)c2n1 [Compound 941]
IC50 (Target C mRNA): 1 to 10 µM | IC50 (SMN2 mRNA): < 100 nM | AC50 (HTT mRNA [1]; [8]): 0.1 to 1 µM | IC50 (HTT mRNA [1]; [9]): 0.1 to 1 µM | IC50 (HTT mRNA [2]): 100 to 1000 nM | IC50 (MYB mRNA; [10]): < 100 nM | IC50 (MYB mRNA; [7]): < 100 nM | AC50 (MYB mRNA; [11]): < 100 nM

CCn1cc2c(N3CC[C@H](N(C)C)C3)cc(F)c(C(=O)Nc3cc(F)c4nc(C)cn4c3)c2n1 [Compound 472, 4-[(3S)-3-(dimethylamino)pyrrolidin-1-yl]-2-ethyl-6-fluoro-N-{8-fluoro-2-methylimidazo[1,2-a]pyridin-6-yl}indazole-7-carboxamide]
IC50 (Target C mRNA): > 10 µM | IC50 (SMN2 mRNA): < 100 nM | IC50 (HTT mRNA [1]; [3]): > 10 µM | AC50 (HTT mRNA [1]; [4]): 1 to 10 µM | IC50 (HTT mRNA [2]): > 10000 nM | AC50 (MYB mRNA; [5]): < 100 nM | IC50 (MYB mRNA; [6]): < 100 nM | IC50 (MYB mRNA; [7]): < 100 nM

Cc1cn2cc(NC(=O)c3ccc(N4CCNCC4)c4cn(C)nc34)nc(C)c2n1 [Compound 293, N-{2,8-dimethylimidazo[1,2-a]pyrazin-6-yl}-2-methyl-4-(piperazin-1-yl)indazole-7-carboxamide]
IC50 (Target C mRNA): > 10 µM | IC50 (SMN2 mRNA): < 100 nM | IC50 (HTT mRNA [1]; [3]): 1 to 10 µM | AC50 (HTT mRNA [1]; [4]): 0.1 to 1 µM | IC50 (HTT mRNA [2]): 1000 to 10000 nM | AC50 (MYB mRNA; [5]): < 100 nM | IC50 (MYB mRNA; [6]): < 100 nM | IC50 (MYB mRNA; [7]): < 100 nM

CCc1cn2c(N3CCNCC3)ccc(C(=O)Nc3cc(F)c4nc(C)cn4c3)c2n1 [Compound 943]
IC50 (Target C mRNA): 1 to 10 µM | IC50 (SMN2 mRNA): < 100 nM | AC50 (HTT mRNA [1]; [8]): 1 to 10 µM | IC50 (HTT mRNA [1]; [9]): 0.1 to 1 µM | IC50 (HTT mRNA [2]): 100 to 1000 nM | IC50 (MYB mRNA; [10]): < 100 nM | IC50 (MYB mRNA; [7]): < 100 nM | AC50 (MYB mRNA; [11]): < 100 nM

Cc1cn2cc(NC(=O)c3ccc(N4CCC(CN)C4)c4cn(C)nc34)cc(F)c2n1 (stereo not drawn) [Compound 327, 4-[3-(aminomethyl)pyrrolidin-1-yl]-N-{8-fluoro-2-methylimidazo[1,2-a]pyridin-6-yl}-2-methylindazole-7-carboxamide]
IC50 (Target C mRNA): > 10 µM | IC50 (SMN2 mRNA): 100 to 1000 nM | IC50 (HTT mRNA [1]; [3]): > 10 µM | AC50 (HTT mRNA [1]; [4]): > 10 µM | IC50 (HTT mRNA [2]): > 10000 nM | AC50 (MYB mRNA; [5]): 100 to 1000 nM | IC50 (MYB mRNA; [6]): 100 to 1000 nM | IC50 (MYB mRNA; [7]): 100 to 1000 nM
